Read-outs that look alike come from different tables or passages of the source.
Target: T1, memapsin 2 (Homo sapiens, UniProt P56817)
T1 construct: pET-11 vector-derived residues 1-15 of promemapsin 2-T1 (N, cleaved yes); made in house; host or cells: E. coli
Assay: Inhibition of memapsin 2 proteolytic activity, fluorogenic substrate FS-2
Assay type: biochemical
Conditions: for Vi/Vo: ratio of initial cleavage velocities of FS-2 with/without compound, enzyme and inhibitor concentrations equal (e.g., about 80 nM, 100 nM)
Method: Ki is the inhibition equilibrium constant which indicates the ability of compounds to inhibit the β-secretase activity of memapsin 2 and memapsin 1. […] The K1 value is independent of the substrate, and converted from Ki apparent.
The Vi/Vo values depicted in Table 1 were determined at conditions under which the enzyme and inhibitor concentrations were equal (e.g., about 80 nM, 100 nM).
The relationship of Ki (independent of substrate concentration) to Kiapp is a function of substrate concentration in the assay and the Km for cleavage of the substrate by either memapsin 1 or memapsin 2 by the relationship:
The spontaneously activated memapsin 2 was employed in assays to assess the inhibition of memapsin 2 relative to memapsin 1 by compounds of the invention and in some crystallization studies.
An aliquot of the inhibitor of known concentration in DMSO was diluted into 1.8 ml 0.1 M NaOAc, pH 4.0. DMSO and added to a final concentration of 10% (v/v), and memapsin 2 (final concentration of 80 nM), followed by a 20 minute equilibration at 37° C. Compounds were evaluated for the ability to inhibit memapsin 1 and memapsin 2 at concentrations between about 10 nM and about 10 μm of inhibitor.

[1] = memapsin 2, independent of substrate, converted from Ki apparent, read-out: Ki
[2] = memapsin 2, apparent Ki in presence of substrate FS-2, read-out: Ki app
[3] = Ki, [I] < 100, memapsin 2, [I] < 100 (nM)

T1 sequence (P56817 41-454 limits assumed): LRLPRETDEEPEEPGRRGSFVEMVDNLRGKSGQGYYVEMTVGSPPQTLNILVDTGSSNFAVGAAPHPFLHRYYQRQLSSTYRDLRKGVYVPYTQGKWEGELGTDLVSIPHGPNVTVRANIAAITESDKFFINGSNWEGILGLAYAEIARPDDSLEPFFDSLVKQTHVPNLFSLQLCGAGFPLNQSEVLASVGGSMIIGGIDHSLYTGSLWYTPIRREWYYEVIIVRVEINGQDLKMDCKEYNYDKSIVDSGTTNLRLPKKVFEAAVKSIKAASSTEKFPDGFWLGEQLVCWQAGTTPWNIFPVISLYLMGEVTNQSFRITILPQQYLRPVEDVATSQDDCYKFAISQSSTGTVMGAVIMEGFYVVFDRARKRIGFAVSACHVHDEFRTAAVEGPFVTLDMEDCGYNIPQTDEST

Structure (SMILES) | Ki [1] [nM] | Ki [2] [nM] | further results
CC(C)C[C@H](NC(=O)OC(C)(C)C)[C@@H](O)C[C@@H](C)C(=O)N[C@@H](C)C(=O)N[C@@H](CCS(C)(=O)=O)C(=O)NCc1ccccc1 [MMI-003] | 1.66e+06 |  | 
C=C(C[C@H](O)[C@H](CC(C)C)NC(=O)[C@H](CCSC)NC(=O)[C@@H](NC(=O)OC(C)(C)C)C(C)C)C(=O)N[C@H](C(=O)NCc1ccccc1)C(C)C [MMI-145] |  |  | Vi/Vo: 0.84
CC(C)C[C@H](NC(=O)[C@H](CCS(C)(=O)=O)NC(=O)[C@@H](NC(=O)OC(C)(C)C)C(C)C)[C@@H](O)C[C@@H](C)C(=O)N[C@@H]1c2ccccc2C[C@@H]1O [MMI-054] | 293000 |  | 
CC(C)CNC(=O)[C@@H](NC(=O)[C@H](C)C[C@H](O)[C@H](CC(C)C)NC(=O)[C@H](CCS(C)(=O)=O)NC(=O)[C@H](CC(C)C)NC(=O)OC(C)(C)C)C(C)C [MMI-135] | 6.46 | 10.3 | Vi/Vo: 0.12
CC(C)C[C@H](NC(=O)[C@H](CCS(C)(=O)=O)NC(=O)OCc1ccc(CN(C)C)o1)[C@@H](O)C[C@@H](C)C(=O)N[C@H](C(=O)NCc1ccccc1)C(C)C [MMI-129] |  |  | Vi/Vo: 1.01
CSCC[C@H](NC(=O)NCc1ccco1)C(=O)N[C@@H](CC(C)C)[C@@H](O)C[C@@H](C)C(=O)N[C@H](C(=O)NCc1ccccc1)C(C)C [MMI-117] |  |  | Vi/Vo: 0.57
CSCC[C@H](NC(=O)C(C)Cn1nc(C)cc1C)C(=O)N[C@@H](CC(C)C)[C@@H](O)C[C@@H](C)C(=O)N[C@@H](CC(C)C)C(=O)NCc1ccco1 (stereo partly drawn) [MMI-226] | 68.9 | 110 | 
CSCC[C@H](NC(=O)[C@@H](NC(=O)OC(C)(C)C)C(C)C)C(=O)N[C@@H](CC(C)C)[C@@H](O)C[C@@H](C)C(=O)N[C@H]1CCCC[C@@H]1O [MMI-051] |  |  | Ki app (memapsin 2, apparent Ki in presence of substrate FS-2): N.I.; Ki (memapsin 2, independent of substrate, converted from Ki apparent): N.I.
CSCC[C@H](NC(=O)C(C)Cn1nc(C)cc1C)C(=O)N[C@@H](CC(C)C)[C@@H](O)C[C@@H](C)C(=O)N[C@H](C(=O)NCC(C)C)C(C)C (stereo partly drawn) [MMI-195] | 282 | 451 | 
Cc1ccc(S(=O)(=O)N[C@@H](CC(C)C)C(=O)N[C@@H](CCS(C)(=O)=O)C(=O)N[C@@H](CC(C)C)[C@@H](O)C[C@@H](C)C(=O)N[C@H](C(=O)NCc2ccccc2)C(C)C)cc1 [MMI-090] | 194 | 311 | 
CSCC[C@H](NC(=O)OCc1cccnc1)C(=O)N[C@@H](Cc1ccccc1)[C@@H](O)C[C@@H](C)C(=O)N[C@H](C(=O)NCc1ccccc1)C(C)C [MMI-040] | 1290 | 2070 | 
CCC[C@H](C[C@H](O)[C@H](CC(C)C)NC(=O)[C@H](CSC)NC(=O)O[C@H]1CO[C@H]2OCC[C@H]21)C(=O)N[C@H](C(=O)NCc1ccccc1)C(C)C [MMI-028] | 6170 | 9870 | 
CC(C)C[C@H](NC(=O)[C@H](CCS(C)(=O)=O)NC(=O)[C@@H](NC(=O)OC(C)(C)C)C(C)C)[C@@H](O)C[C@@H](C)C(=O)N[C@H](C(=O)NCc1cccnc1)C(C)C [MMI-088] | 646 | 1030 | 
CSCC[C@H](NC(=O)OCc1c(C)ncn1C)C(=O)N[C@@H](CC(C)C)[C@@H](O)C[C@@H](C)C(=O)N[C@H](C(=O)NCC(C)C)C(C)C [MMI-189] | 224 | 358 | 
CSCC[C@H](NS(=O)(=O)c1ccc(CO)cc1)C(=O)N[C@@H](Cc1ccccc1)[C@@H](O)C[C@@H](C)C(=O)N[C@H](C(=O)NCc1ccccc1)C(C)C [MMI-048] | 34200 | 54800 | 
CSCC[C@H](NC(=O)[C@@H](NC(=O)OC(C)(C)C)C(C)C)C(=O)N[C@@H](CC(C)C)[C@@H](O)C[C@@H](C)C(=O)N[C@H]1CCCC[C@@H]1O [MMI-055] | 394000 |  | 
CCC[C@H](C[C@H](O)[C@H](CC(C)C)NC(=O)[C@H](CSC)NC(=O)O[C@H]1CCOC1)C(=O)N[C@H](C(=O)NCc1ccccc1)C(C)C [MMI-029] | 1060 | 1700 | 
CSCC[C@H](NC(=O)[C@@H](NC(=O)OC(C)(C)C)C(C)C)C(=O)N[C@@H](CC(C)C)[C@@H](O)C[C@@H](C)C(=O)N[C@@H](C(C)C)C1CC(Cc2ccccc2)CCO1 (stereo partly drawn) [MMI-146-S] |  |  | Vi/Vo: 1.04
CSCC[C@H](NC(=O)[C@@H](NC(=O)OC(C)(C)C)C(C)C)C(=O)N[C@@H](CC(C)C)[C@@H](O)C[C@@H](C)C(=O)N[C@H]1c2ccccc2C[C@H]1O [MMI-046] | 93700 |  | 
CSCC[C@H](NC(=O)OCn1nc(C)cc1C)C(=O)N[C@@H](CC(C)C)[C@@H](O)C[C@@H](C)C(=O)N[C@@H](CC(C)C)C(=O)NC(C)C [MMI-224] | 43.8 | 70 | 
COc1cccc(C(=O)N[C@@H](CCSC)C(=O)N[C@@H](CC(C)C)[C@@H](O)C[C@@H](C)C(=O)N[C@@H](CC(C)C)C(=O)NC(C)C)c1OC [MMI-206] | 758 | 1210 | Ki [3]: 292 nM
CSCC[C@H](NC(=O)[C@@H](NC(=O)OC(C)(C)C)C(C)C)C(=O)N[C@@H](CC(C)C)[C@@H](O)C[C@@H](C)C(=O)N[C@@H](C(C)C)C1CC(Cc2ccccc2)CCO1 (stereo partly drawn) [MMI-146-A] |  |  | Vi/Vo: 1.07
CSCC[C@H](NC(=O)[C@@H](NC(=O)OC(C)(C)C)C(C)C)C(=O)N[C@@H](CC(C)C)[C@@H](O)C[C@@H](C)C(=O)N[C@@H](C(C)C)C1CCCCO1 (stereo partly drawn) [MMI-130] | 68600 |  | 
CSCC[C@H](NC(=O)[C@@H](NC(=O)OC(C)(C)C)C(C)C)C(=O)N[C@@H](CC(C)C)[C@@H](O)C[C@@H](C)C(=O)N[C@@H](CC(C)C)C(=O)N1CCOCC1 [MMI-183] | 4210 | 6740 | Ki [3]: 108 nM; Vi/Vo: 0.64
CSCC[C@H](NC(=O)CCn1nc(C)cc1C)C(=O)N[C@@H](CC(C)C)[C@@H](O)C[C@@H](C)C(=O)N[C@H](C(=O)NCc1ccco1)C(C)C [MMI-213] | 52.9 | 84.6 | 
CCCCNC(=O)[C@@H](NC(=O)[C@H](C)C[C@H](O)[C@H](CC1CCC1)NC(=O)[C@H](CCSC)NC(=O)OCn1nc(C)cc1C)C(C)C [MMI-178] | 15.3 | 24.5 | Vi/Vo: 0.69
CC(C)C[C@H](NC(=O)OC(C)(C)C)C(=O)N[C@@H](CC1CCCO1)C(=O)N[C@@H](CC(C)C)[C@@H](O)C[C@@H](C)C(=O)N[C@@H](CC(C)C)C(=O)NC(C)C (stereo partly drawn) [MMI-215] | 19.3 | 30.9 | 
CC(C)C[C@H](NC(=O)OC(C)(C)C)C(=O)N[C@@H](CC1CCCO1)C(=O)N[C@@H](CC(C)C)[C@@H](O)C[C@@H](C)C(=O)N[C@@H](CC(C)C)C(=O)NC(C)C (stereo partly drawn) [MMI-205] | 30.5 | 48.8 | 
CC(C)C[C@H](NC(=O)C(CCS(C)(=O)=O)NC(=O)[C@@H](NC(=O)OC(C)(C)C)C(C)C)[C@@H](O)C[C@@H](C)C(=O)N[C@H](C(=O)NCc1ccccc1)[C@H](C)O (stereo partly drawn) [MMI-082] |  |  | Vi/Vo: 0.72

Now from value to molecule, other results behind:

Ki [1] [nM] | Ki [2] [nM] | Structure (SMILES) | further results
18800 | 30000 | CSCC[C@H](NC(=O)[C@@H](NC(=O)OC(C)(C)C)C(C)C)C(=O)N[C@@H](CC(C)C)[C@@H](O)C[C@@H](C)C(=O)N[C@@H](C(C)C)C1CC(Cc2ccccc2)CC(=O)O1 (stereo partly drawn) [MMI-141] | 
197 | 315 | CSCC[C@H](NC(=O)[C@H](CC(C)C)NS(=O)(=O)c1ccc(C)cc1)C(=O)N[C@@H](CC(C)C)[C@@H](O)C[C@@H](C)C(=O)N[C@H](C(=O)NCc1ccccc1)C(C)C [MMI-089] | 
520 | 831 | CSCC[C@@H](NC(=O)[C@H](CC(C)C)NC(=O)OC(C)(C)C)C(=O)N[C@@H](CC(C)C)[C@@H](O)C[C@@H](C)C(=O)N[C@H](C(=O)NCc1ccccc1)C(C)C [MMI-104] | 
902 | 1440 | CC(C)C[C@H](NC(=O)[C@H](CS(C)(=O)=O)NC(=O)OC(C)(C)C)[C@@H](O)C[C@@H](C)C(=O)N[C@H](C(=O)NCc1ccccc1)C(C)C [MMI-024] | 
56.2 | 89.9 | CC(C)C[C@H](NC(=O)[C@H](CCS(C)(=O)=O)NC(=O)[C@@H](NC(=O)OC(C)(C)C)C(C)C)[C@@H](O)C[C@@H](C)C(=O)N[C@@H](C)C(=O)NCc1ccccc1 [MMI-009] | 
182 | 290 | CC[C@H](C)[C@H](NC(=O)[C@H](C)C[C@H](O)[C@H](CC(C)C)NC(=O)C(CCSC)NC(=O)[C@H](CC(C)C)NC(=O)OC(C)(C)C)C(=O)NCc1ccccc1 (stereo partly drawn) [MMI-099] | 
40.1 | 64.1 | CSCC[C@H](NC(=O)[C@H](CC(C)C)NC(C)=O)C(=O)N[C@@H](CC(C)C)[C@@H](O)C[C@@H](C)C(=O)N[C@H](C(=O)NCc1ccccc1)C(C)C [MMI-094] | 
64.8 | 104 | CSCC[C@H](NC(=O)[C@@H](NC(=O)OC(C)(C)C)C(C)C)C(=O)N[C@@H](CC(C)C)[C@@H](O)C[C@@H](CCO)C(=O)N[C@H](C(=O)NCc1ccccc1)C(C)C [MMI-037] | 
565 | 905 | CSCC[C@H](NC(=O)[C@@H](NC(=O)OC(C)(C)C)C(C)C)C(=O)N[C@@H](CC(C)C)[C@@H](O)C[C@@H](C)C(=O)N[C@H](C(=O)NCc1cccnc1)C(C)C [MMI-087] | 
51.7 | 82.8 | CSCCC(NC(=O)[C@H](CC(C)C)NC(=O)OC(C)(C)C)C(=O)N[C@@H](CC(C)C)[C@@H](O)C[C@@H](C)C(=O)N[C@@H](CC(C)C)C(=O)NCc1ccccc1 (stereo partly drawn) [MMI-097] | 

Reference: patent US20040121947A1, “Compounds which inhibit beta-secretase activity and methods of use thereof” (Oklahoma Medical Research Foundation, priority 2000, published 2004)
